Consider 1 molecule from patent US20040121031A1, “Novel topical skin care and nutraceutical applications of Glabridin or extracts containing a defined amount (4-90%) of Glabridin” (priority 2002, published 2004).

A short description of the data set: Ease of solubility in cosmetically acceptable solvents. It counts as physicochemical. Conditions: in contrast to Ursolic acid. An excerpt:
In order to formulate an effective cosmetic product, the individual ingredients have to be solublized in cosmetically acceptable solvents. The following table indicates the ease of solubility of glabridin and the licorice extract in contrast to Ursolic acid, a terpenoid compound used in cosmetics for similar claims.

With `CC1(C)C=Cc2c(ccc3c2OC[C@@H](c2ccc(O)cc2O)C3)O1` [glabridin, Glabridin], the ease of solubility result is given as “much more easily soluble than Ursolic acid”.
